Read-outs that look alike come from different tables or passages of the source.
Tests used:
[1] = molecular target: T1, HCV NS3/4A 1b protease D168A (Hepatitis C virus genotype 1b, UniProt Q9WMX2, D1194A); test: HCV protease FRET assay (IC50_APP), Example 16; format: biochemical
T1 construct: 10× stocks of NS3/4A protease enzyme from Bioenza (Mountain View, Calif.); purchased Bioenza (Mountain View, Calif.)
Procedure: (§1) The following protocol was used to generate “apparent” IC50 (IC50 APP) values as depicted in Table 6, below. […] 5 μL of each enzyme were added to Corning (#3575) 384-well, black, microtiter plates (Corning, N.Y.) after spotting a 0.5 μL volume of 50% DMSO and serially diluted compounds prepared in 50% DMSO. Protease reactions were immediately started after enzyme addition with the addition of 45 μL of the FRET substrate and monitored for 60-90 minutes at λex485/λem520 in a Synergy^4 plate reader from BioTek (Winooski, Vt.). At the conclusion of each assay, progress curves from each well were examined for linear reaction kinetics and fit statistics (R^2, 95% confidence intervals, absolute sum of squares).
(§2) The compound numbers correspond to the compound numbers in Table 3. […] ;

[2] = molecular target: T2, HCV NS3/4A 1b protease R155K (Hepatitis C virus genotype 1b, UniProt Q9WMX2, R1181K); test: HCV protease FRET assay (IC50_APP), Example 16; format: biochemical; conditions: reaction started immediately after enzyme addition, read-out: Inhibition (apparent IC50, IC50_APP), HCV R155K
T2 construct: 10× stocks of NS3/4A protease enzyme from Bioenza (Mountain View, Calif.); purchased Bioenza (Mountain View, Calif.)
Procedure: as §1, §2

[3] = molecular target: T3, HCV NS3/4A 1b protease wild type (Hepatitis C virus genotype 1b, UniProt Q9WMX2); test: HCV protease FRET assay (IC50_APP), Example 16; format: biochemical
T3 construct: 10× stocks of NS3/4A protease enzyme from Bioenza (Mountain View, Calif.); purchased Bioenza (Mountain View, Calif.)
Procedure: as §1, §2

[4] = test system: HCV RNA replicon in cell line ET (luc-ubi-neo/ET), human Huh7 hepatoma; test: Replicon luciferase assay, Example 26; format: cell-based; conditions: Hepatitis C virus, Huh-7, assay of Example 26, 72 hr; for EC50: read-out: Inhibition, Replicon, EC50 value; for EC90: read-out: Inhibition, Replicon, EC90 value
Procedure: The compounds were assayed to evaluate the antiviral activity and cytotoxicity of compounds using replicon-derived luciferase activity. This assay used the cell line ET (luc-ubi-neo/ET), which is a human Huh7 hepatoma cell line that contains an HCV RNA replicon with a stable luciferase (Luc) reporter and cell culture-adaptive mutations. The ET cell line was grown in a 5% CO2 incubator at 37° C. in Dulbecco's modified essential media (DMEM) supplemented with 2 mM L-glutamine, nonessential amino acids, 100 U of penicillin/ml, 100 μg of streptomycin/mL, and 10% fetal bovine serum. G418 (Geneticin; Invitrogen) was added at a final concentration of 400 ug//mL.
All cell culture reagents were obtained from Invitrogen (Carlsbad). Cells were trypsinized (1% trypsin:EDTA) and plated out at 5×10^3 cells/well in white 96-well assay plates (Costar) dedicated to cell number (cytotoxicity) or antiviral activity assessments. Test compounds were added at six 3-fold concentrations each and the assay was run in DMEM, 5% FBS, 1% pen-strep, 1% glutamine, 1% non essential amino acid. Human interferon alpha-2b (PBL Biolabs, New Brunswick, N.J.) was included in each run as a positive control compound. Cells were processed 72 hr post test compound addition when the cells were still subconfluent. Antiviral activity was measured by analyzing replicon-derived luciferase activity using the Steady-Glo Luciferase Assay System (Promega, Madison, Wis.) according to manufacturer's instruction. The number of cells in each well was determined by Cell Titer Blue Assay (Promega). Compound profile was derived by calculating applicable EC50 (effective concentration inhibiting virus replication by 50%), EC90 (effective concentration inhibiting virus replication by 90%), IC50 (concentration decreasing cell viability by 50%) and SI50 (selective index: […]) values.

SMILES	IC50 [1] [nM]	IC50 [2] [nM]	IC50 [3] [nM]	EC50 [4] [nM]	EC90 [4] [nM]	IC50 ([1]; read-out: Inhibition (apparent IC50, IC50_APP), HCV D168A, FRET, reaction started immediately after enzyme addition) [nM]	IC50 ([3]; read-out: Inhibition (apparent IC50, IC50_APP), WT, FRET, reaction started immediately after enzyme addition) [nM]
CC[C@@H]1C[C@]1(NC(=O)[C@@H]1C[C@@H]2CN1C(=O)[C@H](CCC(=O)C=C(C)C)NC(=O)OCC(C)(C)CC/C=C/c1cccc3c1CN(C3)C(=O)O2)C(=O)NS(=O)(=O)C1CC1 [Compound I-56]	100 to 1000	100 to 1000	< 10	< 10			
C=CC(=O)N1C/C=C\[C@@H]2C[C@@]2(C(=O)NS(=O)(=O)C2CC2)NC(=O)[C@@H]2CC(OC(=O)N3Cc4cccc(F)c4C3)CN2C(=O)[C@@H](NC(=O)OC(C)(C)C)CCC1 (stereo partly drawn) [Compound I-37]	10 to 100	10 to 100	< 10	100 to 1000	1000 to 10000		
C=CC(=O)N1CCC/C=C\[C@@H]2C[C@@]2(C(=O)NS(=O)(=O)C2CC2)NC(=O)[C@@H]2CC(OC(=O)N3Cc4cccc(F)c4C3)CN2C(=O)[C@@H](NC(=O)OC(C)(C)C)C1 (stereo partly drawn) [Compound I-35, (1aR,3aS,5R,9S,16aS,Z)-11-acryloyl-9-(tert-butoxycarbonylamino)-1a-(cyclopropylsulfonylcarbamoyl)-3,8-dioxo-1,1a,2,3,3a,4,5,6,8,9,10,11,12,13,14,16a-hexadecahydrocyclopropa[n]pyrrolo[2,1-c][1,4,8]triazacyclopentadecin-5-yl-4-fluoroisoindoline-2-carboxylate]	10 to 100	10 to 100	< 10	100 to 1000	100 to 1000		
C=CC(=O)N(C)CC(NC(=O)C12CCC(C(=O)OC)(CC1)CC2)C(=O)N1CC(OC(=O)N2Cc3cccc(F)c3C2)C[C@H]1C(=O)N[C@]1(C(=O)NS(=O)(=O)C2CC2)C[C@H]1C=C (stereo partly drawn) [Compound I-52]	1000 to 10000		10 to 100	1000 to 10000	1000 to 10000		
CC[C@@H]1C[C@]1(NC(=O)[C@@H]1C[C@@H](OC(=O)N2Cc3cccc(F)c3C2)CN1C(=O)[C@H](CC(=O)C=C(C)C)NC(=O)OC(C)(C)C)C(=O)NS(=O)(=O)C1CC1 [Compound I-60]		100 to 1000	< 10				
C=C[C@@H]1C[C@]1(NC(=O)[C@@H]1CC(OC(=O)N2Cc3cccc(F)c3C2)CN1C(=O)C(CN(C)C(=O)/C=C/CN(C)C)NC(=O)OC(C)(C)C)C(=O)NS(=O)(=O)C1CC1 (stereo partly drawn) [Compound I-50]	1000 to 10000	1000 to 10000	10 to 100	1000 to 10000	1000 to 10000		
C=C[C@@H]1C[C@]1(NC(=O)[C@@H]1CC(OC(=O)N2Cc3cccc(F)c3C2)CN1C(=O)[C@H](CC/C=C/C(=O)OC)NC(=O)OC(C)(C)C)C(=O)NS(=O)(=O)C1CC1 (stereo partly drawn) [Compound I-72]	100 to 1000	10 to 100	< 10				
C=C[C@@H]1C[C@]1(NC(=O)[C@@H]1CC(OC(=O)N2Cc3cccc(F)c3C2)CN1C(=O)[C@H](CCC(=O)/C=C\C(C)(C)C)NC(=O)OC(C)(C)C)C(=O)NS(=O)(=O)C1CC1 (stereo partly drawn) [Compound I-71]	100 to 1000	100 to 1000	< 10	< 10			
C=C(C)C(=O)C[C@H](NC(=O)OC(C)(C)C)C(=O)N1CC(OC(=O)N2Cc3cccc(F)c3C2)C[C@H]1C(=O)N[C@]1(C(=O)NS(=O)(=O)C2CC2)C[C@H]1CC (stereo partly drawn) [Compound I-69]	10 to 100	< 10	< 10	100 to 1000			
CC(C)(C)OC(=O)N[C@H]1CCN(S(=O)(=O)c2ccccc2[N+](=O)[O-])CC/C=C\[C@@H]2C[C@@]2(C(=O)NS(=O)(=O)C2CC2)NC(=O)[C@@H]2CC(OC(=O)N3Cc4cccc(F)c4C3)CN2C1=O (stereo partly drawn) [Compound I-53]		< 10		10 to 100	100 to 1000	< 10	< 10
C=C[C@@H]1C[C@]1(NC(=O)[C@@H]1CC(OC(=O)N2Cc3cccc(F)c3C2)CN1C(=O)[C@H](CC(=O)C(=C)C)NC(=O)OC(C)(C)C)C(=O)NS(=O)(=O)C1CC1 (stereo partly drawn) [Compound I-68]	< 10	< 10	< 10	100 to 1000			
CC[C@@H]1C[C@]1(NC(=O)[C@@H]1CC(OC(=O)N2Cc3cccc(F)c3C2)CN1C(=O)[C@H](CCC(=O)C=C(C)C)NC(=O)OC(C)(C)C)C(=O)NS(=O)(=O)C1CC1 (stereo partly drawn) [Compound I-33]	1000 to 10000	100 to 1000	< 10				
C=CC(=O)NC[C@@H]1NC(=O)OCC(C)(C)CCCCc2cccc3c2CN(C3)C(=O)O[C@@H]2C[C@@H](C(=O)N[C@]3(C(=O)NS(=O)(=O)C4CC4)C[C@H]3C=C)N(C2)C1=O [Compound I-42]	10 to 100	10 to 100	< 10				
CC(C)(C)OC(=O)N[C@H]1CN(C(=O)CCl)CCC/C=C\[C@@H]2C[C@@]2(C(=O)N(C(=O)CCl)S(=O)(=O)C2CC2)NC(=O)[C@@H]2CC(OC(=O)N3Cc4cccc(F)c4C3)CN2C1=O (stereo partly drawn) [Compound I-48]	100 to 1000	100 to 1000	10 to 100				
C=C[C@@H]1C[C@]1(NC(=O)[C@@H]1C[C@@H](OC(=O)N2Cc3cccc(F)c3C2)CN1C(=O)[C@H](COC(=O)/C=C/C=C/C)NC(=O)OC(C)(C)C)C(=O)NS(=O)(=O)C1CC1 [Compound I-67]	100 to 1000	100 to 1000	< 10				
C=C[C@@H]1C[C@]1(NC(=O)[C@@H]1C[C@@H]2CN1C(=O)[C@H](CC(=O)C=C(C)C)NC(=O)OCC(C)(C)CC/C=C/c1cccc3c1CN(C3)C(=O)O2)C(=O)NS(=O)(=O)C1CC1 [Compound I-79]	10 to 100	< 10	< 10	< 10			
C=CC(=O)N1CC/C=C\[C@@H]2C[C@@]2(C(=O)NS(=O)(=O)C2CC2)NC(=O)[C@@H]2CC(OC(=O)N3Cc4cccc(F)c4C3)CN2C(=O)[C@@H](NC(=O)OC(C)(C)C)CC1 (stereo partly drawn) [Compound I-36]	< 10	< 10	< 10	100 to 1000	100 to 1000		
C=C[C@@H]1C[C@]1(NC(=O)[C@@H]1CC(OC(=O)N2Cc3cccc(F)c3C2)CN1C(=O)[C@H](CC(=O)/C(C)=C/C)NC(=O)OC(C)(C)C)C(=O)NS(=O)(=O)C1CC1 (stereo partly drawn) [Compound I-70]	100 to 1000	100 to 1000	< 10				
CCCCC(NC(=O)[C@@H]1C[C@@H](OC(=O)N2Cc3cccc(F)c3C2)CN1C(=O)[C@H](CCC(=O)C=C(C)C)NC(=O)OC(C)(C)C)C(=O)NS(=O)(=O)C1CC1 (stereo partly drawn) [Compound I-44, (3R,5S)-1-((S)-2-(tert-butoxycarbonylamino)-7-methyl-5-oxooct-6-enoyl)-5-(1-(cyclopropanesulfonamido)-1-oxohexan-2-ylcarbamoyl)pyrrolidin-3-yl 4-fluoroisoindoline-2-carboxylate]	1000 to 10000	1000 to 10000	< 10				
C=CC(=O)NC[C@@H]1NC(=O)OCC(C)(C)CC/C=C/c2cccc3c2CN(C3)C(=O)O[C@@H]2C[C@@H](C(=O)N[C@]3(C(=O)NS(=O)(=O)C4CC4)C[C@H]3C=C)N(C2)C1=O [Compound I-40]	10 to 100	< 10	< 10				
C/C=C(\C)C(=O)CC[C@H](NC(=O)OC(C)(C)C)C(=O)N1CC(OC(=O)N2Cc3cccc(F)c3C2)C[C@H]1C(=O)N[C@]1(C(=O)NS(=O)(=O)C2CC2)C[C@H]1CC (stereo partly drawn) [Compound I-39]	100 to 1000	10 to 100	< 10				
C/C=C/C(=O)OC1CC/C=C\[C@@H]2C[C@@]2(C(=O)NS(=O)(=O)C2CC2)NC(=O)[C@@H]2C[C@@H](OC(=O)N3Cc4cccc(F)c4C3)CN2C(=O)[C@@H](NC(=O)OC(C)(C)C)CC1 (stereo partly drawn) [Compound I-66]	< 10	< 10	< 10				
CC(C)(C)OC(=O)N[C@H]1COC(=O)/C=C/C=C\[C@@H]2C[C@@]2(C(=O)NS(=O)(=O)C2CC2)NC(=O)[C@@H]2C[C@@H](OC(=O)N3Cc4cccc(F)c4C3)CN2C1=O [Compound I-65]	100 to 1000	10 to 100	< 10				

From patent US8293705B2, “HCV protease inhibitors and uses thereof” (Avila Therapeutics, Inc., priority 2007, dated 2012)
